Measured values published in patent US20260176249A1, “PROTEIN KINASE INHIBITOR, PREPARATION METHOD THEREFOR, AND APPLICATION THEREOF” (SHANDONG LUYE PHARMACEUTICAL CO., LTD., priority 2021, published 2026).
Where two headings read alike, the source gives them in different places.

What was measured:
[1] = Metabolic stability in mouse liver microsomes; format: in vitro ADME; details: for CLint scaled at 1 µM / half-life at 1 µM / microsomal CLint at 1 µM: mouse; for CLint scaled at 1 µM / half-life at 1 µM: pH 7.4; for microsomal CLint at 1 µM: pH 7.4, read-out: CLint(mic)
Outline: (§1)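 Compounds incubated at 37 °C with mouse, rat or human liver microsomes in 100 mM phosphate buffer pH 7.4, started with NADPH/MgCl2 and sampled at 0–60 min. Parent remaining quantified by LC-MS. T1/2 and CLint(mic) derived from depletion, scaled to CLint using 45 mg protein/g liver and species liver/body weight ratios.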

[2] = system: HCT116 cells; experiment: Inhibitory activity on HCT116 cell proliferation (ATPlite); format: cell-based; details: Homo sapiens, HCT-116, HCT116 cells, 72 h
Description: Cell culture medium: RPMI1640+10% FBS (GBICO)
Cell culture plate: 96-well plate (Shanghai Jingan Biotechnology Co., Ltd.)
Detection kit: ATPlite 1step Luminescence (PerkinElmer)
Detection instrument: BioTek multifunctional microplate reader
2. Test method: HCT116 cells in the logarithmic growth phase were seeded into a white-wall clear-bottom 96-well plate at a density of 720 cells per well, and cultured overnight in a 37° C., 5% CO2 incubator. […] After adding the drug, culturing was continued for 72 h in a 37° C., 5% CO2 incubator.
GraphPad Prism 7.0 was used to process the data, the cell inhibition rate curve was obtained and IC50 was calculated.

[3] = Metabolic stability in human liver microsomes; format: in vitro ADME; details: for CLint scaled at 1 µM / half-life at 1 µM / microsomal CLint at 1 µM: human; for CLint scaled at 1 µM / half-life at 1 µM: pH 7.4; for microsomal CLint at 1 µM: pH 7.4, read-out: CLint(mic)
Outline: as §1

[4] = Permeability and efflux transporter substrate evaluation in Caco-2 cells; format: in vitro ADME; design: Papp A→B at 120 min / Papp B→A at 120 min / efflux ratio at 120 min / Papp at 120 min: dose or concentration left out as unconfirmed; details: human; for efflux ratio at 120 min / Papp at 120 min: Caco-2, pH 7.4; for Papp at 120 min: read-out: Classification Permeability; for Papp A→B at 120 min / Papp B→A at 120 min: pH 7.4, pH 7.40; for Papp A→B at 120 min: Caco-2, apical to basolateral; for Papp B→A at 120 min: Caco-2, basolateral to apical
Outline: (§2)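 Bidirectional (A-B, B-A) transport across 21-28-day Caco-2 monolayers in HBSS/10 mM HEPES pH 7.40, test substance at […], 7200 s incubation. LC-MS/MS quantitation; Papp, efflux ratio and recovery calculated, monolayer integrity checked by Lucifer Yellow rejection.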

[5] = system: Caco-2 cells; experiment: as above; format: in vitro ADME; design: Papp A→B at 120 min / Papp B→A at 120 min / efflux ratio at 120 min / Papp at 120 min: dose or concentration left out as unconfirmed; details: Caco-2
Outline: as §2

[6] = read-out: half inhibitory concentration

SMILES | 60 min remaining amount [1] [%] | Clearance rate [1] | CLint scaled at 1 µM [1] [mL/min/kg] | half-life at 1 µM [1] [min] | microsomal CLint at 1 µM [1] [µL/min/mg] | IC50 ([2]; read-out: IC50) [nM] | IC50 [2, 6] [nM] | 60 min remaining amount [3] [%] | Clearance rate [3] | CLint scaled at 1 µM [3] [mL/min/kg] | half-life at 1 µM [3] [min] | microsomal CLint at 1 µM [3] [µL/min/mg] | efflux ratio at 120 min [4] | Papp at 120 min [4] [×10⁻⁶ cm/s] | Papp A→B at 120 min [4] [×10⁻⁶ cm/s] | Papp B→A at 120 min [4] [×10⁻⁶ cm/s] | Classification Efflux transporter substrate [5]
CN1CCN(c2ccc(OC(F)(F)F)c(Nc3ncc4c(n3)-c3c(c(C(N)=O)cn3CCO)CC4)c2)CC1 [Compound 2] | 26.7 | Medium | 175 | 31.4 | 44.2 | 27 | 27 | 49.9 | Medium | 22.7 | 55 | 25.2 | > 54.4 | < 0.5 | < 0.48 | 26.1 | Likely (ERa ≥ 2.00)
CN1CCN(c2ccc(OC(F)(F)F)c(Nc3ncc4c(n3)-c3c(c(C(N)=O)nn3CCC#N)CC4)c2)CC1 [Compound 4] | 1.33 | High | 1230 | 4.47 | 310 | 332 |  | 23.7 | Medium | 44.1 | 28.3 | 49 | 22.1 | 0.5 to 2.5 | 1.16 | 25.5 | Likely (ERa ≥ 2.00)
CN1CCN(c2ccc(OC(F)(F)F)c(Nc3ncc4c(n3)-c3c(c(C(=O)NN)nn3CCO)CC4)c2)CC1 [Compound 13] | 38.6 | Medium | 123 | 44.7 | 31 | 831 |  | 58.5 | Medium | 17.5 | 71.4 | 19.4 | > 28.6 | < 0.5 | < 0.48 | 13.7 | Likely (ERa ≥ 2.00)
Cn1nc(C(N)=O)c2ccc3cnc(Nc4cc(N5CCN(CCO)CC5)ccc4OC(F)(F)F)nc3c21 [Compound 16] | 24.6 | Medium | 184 | 29.9 | 46.4 | 502 |  | 23.3 | Medium | 44.1 | 28.3 | 49 | 7.27 | 0.5 to 2.5 | 0.917 | 6.66 | Likely (ERa ≥ 2.00)
Cn1nc(C(N)=O)c2c1-c1nc(Nc3cc(N4CCN(CCO)CC4)ccc3OC(F)(F)F)ncc1CC2 [Compound 20] | 15.9 | High | 238 | 23.1 | 60 | 143 |  | 26.5 | Medium | 39.1 | 31.9 | 43.4 | 10.4 | 0.5 to 2.5 | 1.3 | 13.4 | Likely (ERa ≥ 2.00)
CN1CCN(c2ccc(OCC(F)(F)F)c(Nc3ncc4c(n3)-c3c(c(C(N)=O)nn3CCO)CC4)c2)CC1 [Compound 24] | 58.2 | Medium | 74.4 | 73.7 | 18.8 | 32 | 32 | 40.1 | Medium | 28.6 | 43.6 | 31.8 | 279 | < 0.5 | 0.106 | 29.5 | Likely (ERa ≥ 2.00)
CN1CCN(c2ccc(OC(F)(F)F)c(Nc3ncc4c(n3)-c3c(c(C(N)=O)nn3CCO)CC4)c2)CC1 [Onvansertib, reference compound] | 21.5 | Medium | 202 | 27.2 | 51 | 42 |  | 64.8 | Medium | 15.3 | 81.5 | 17 |  | < 0.5 | 0.299 | 43.6 | Likely (ERa ≥ 2.00)
